{
  "source": "patent US20130224234A1",
  "about": "“TTLL4 PEPTIDES AND VACCINES CONTAINING THE SAME” (Onco Therapy Science, Inc., priority 2010, published 2013)",
  "key": {"peptide-pulsed T2 cells [1]": {"system": "peptide-pulsed T2 cells", "test": "IFN-gamma ELISA assay of CTL lines (HLA-A*0201)", "assay_type": "cell-based, human", "settings": "CTL lines stimulated with peptide, target cells pulsed with peptide vs without peptide pulse", "procedure": "CTLs were expanded in culture using the method similar to the one described by Riddell et al. (Walter E A et al., N Engl J Med 1995, 333(16): 1038-44; Riddell S R et al., Nat Med 1996, 2(2): 216-23). A total of 5×10^4 CTLs were suspended in 25 ml of AIM-V/5% AS medium with 2 kinds of human B-lymphoblastoid cell lines, inactivated by Mitomycin C, in the presence of 40 ng/ml of anti-CD3 monoclonal antibody (Pharmingen). One day after initiating the cultures, 120 IU/ml of IL-2 were added to the cultures. The cultures were fed with fresh AIM-V/5% AS medium containing 30 IU/ml of IL-2 on days 5, 8 and 11 (Tanaka H et al., Br J Cancer 2001, 84(1): 94-9; Umano Y et al., Br J Cancer 2001, 84(8): 1052-7; Uchida N et al., Clin Cancer Res 2004, 10(24): 8577-86; Suda T et al., Cancer Sci 2006, 97(5): 411-9; Watanabe T et al., Cancer Sci 2005, 96(8): 498-506).\n(§1) Specifically, peptide-pulsed T2 (1×10^4/well) was prepared as stimulator cells. Cultured cells in 48 wells were used as responder cells. IFN-gamma ELISPOT assay and IFN-gamma ELISA assay were performed under manufacture procedure.\n(§2) CTL activity of these CTL lines was determined by IFN-gamma ELISA assay (FIG. 6a-d). […] Furthermore, the CTL clones were established by limiting dilution from the CTL lines as described in “Materials and Methods”, and IFN-gamma production from the CTL clones against target cells pulsed peptide was determined by IFN-gamma ELISA assay."}, "peptide-pulsed T2 cells [2]": {"system": "peptide-pulsed T2 cells", "test": "In vitro CTL induction, IFN-gamma ELISPOT assay (HLA-A*0201)", "assay_type": "cell-based, human", "settings": "CTLs induced with peptide from HLA-A*0201 positive donor, peptide-pulsed T2 vs control", "source_text": "Monocyte-derived dendritic cells (DCs) were used as antigen-presenting cells to induce cytotoxic T lymphocyte (CTL) responses against peptides presented on human leukocyte antigen (HLA). DCs were generated in vitro as described elsewhere (Nakahara S et al., Cancer Res 2003, 63(14): 4112-8). Specifically, peripheral blood mononuclear cells isolated from a normal volunteer (HLA-A*0201 positive) by Ficoll-Plaque (Pharmacia) solution were separated by adherence to a plastic tissue culture dish (Becton Dickinson) so as to enrich them as the monocyte fraction. The monocyte-enriched population was cultured in the presence of 1000 U/ml of granulocyte-macrophage colony-stimulating factor (R&D System) and 1000 U/ml of interleukin (IL)-4 (R&D System) in AIM-V Medium (Invitrogen) containing 2% heat-inactivated autologous serum (AS). After 7 days of culture, the cytokine-induced DCs were pulsed with 20 micro-g/ml of each of the synthesized peptides in the presence of 3 micro-g/ml of beta 2-microglobulin for 3 hr at 37 degrees C. in AIM-V Medium. The generated cells appeared to express DC-associated molecules, such as CD80, CD83, CD86 and HLA class II, on their cell surfaces (data not shown). These peptide-pulsed DCs were then inactivated by X-irradiation (20 Gy) and mixing at a 1:20 ratio with autologous CD8+ T cells, obtained by positive selection with CD8 Positive Isolation Kit (Dynal). These cultures were set up in 48-well plates (Corning); each well contained 1.5×10^4 peptide-pulsed DCs, 3×10^5 CD8+ T cells and 10 ng/ml of IL-7 (R&D System) in 0.5 ml of AIM-V/2% AS medium. Three days later, these cultures were supplemented with IL-2 (CHIRON) to a final concentration of 20 IU/ml. On day 7 and 14, the T cells were further stimulated with the autologous peptide-pulsed DCs. The DCs were prepared each time by the same way described above. CTL was tested against peptide-pulsed T2 cells after the 3rd round of peptide stimulation on day 21 (Tanaka H et al., Br J Cancer 2001, 84(1): 94-9; Umano Y et al., Br J Cancer 2001, 84(8): 1052-7; Uchida N et al., Clin Cancer Res 2004, 10(24): 8577-86; Suda T et al., Cancer Sci 2006, 97(5): 411-9; Watanabe T et al., Cancer Sci 2005, 96(8): 498-506).\nas §1\nCTLs for those peptides derived from TTLL4 were generated according to the protocols as described in “Materials and Methods”."}, "[3]": {"system": "COS7 cells transfected with TTLL4 and HLA-A*0201", "test": "Specific CTL activity against target cells expressing TTLL4 and HLA-A*0201", "assay_type": "cell-based, African green monkey", "settings": "for Specific CTL activity against COS7 cells transfected with both TTLL4 and HLA-A*0201: CTL clone (9-805) or CTL line (9-66) established with peptide; for Specific CTL activity against control COS7 cells expressing either HLA-A*0201 or TTLL4: controls: COS7 transfected with only full length TTLL4 or only HLA-A*0201", "source_text": "The cDNA encoding an open reading frame of target genes or HLA-A*0201 was amplified by PCR. The PCR-amplified product was cloned into a vector. The plasmids were transfected into COST, which is the target genes and HLA-A*0201-null cell line, using lipofectamine 2000 (Invitrogen) according to the manufacturer's recommended procedures. After 2 days from transfection, the transfected cells were harvested with versene (Invitrogen) and used as the target cells (5×10^4 cells/well) for CTL activity assay.\nThe established CTL lines and clones raised against each peptide were examined for the ability to recognize target cells that express TTLL4 and HLA-A*0201 molecule. […] COS7 cells transfected with either full length of TTLL4 or HLA-A*0201 were prepared as the controls."}, "peptide-pulsed T2 cells [4]": {"system": "peptide-pulsed T2 cells", "test": "IFN-gamma ELISA assay of CTL clones (HLA-A*0201)", "assay_type": "cell-based, human", "settings": "CTL clones by limiting dilution, target cells pulsed with peptide vs control", "procedure": "The dilutions were made to have 0.3, 1, and 3 CTLs/well in 96 round-bottomed micro titer plate (Nalge Nunc International). CTLs were cultured with 1×10^4 cells/well of 2 kinds of human B-lymphoblastoid cell lines, 30 ng/ml of anti-CD3 antibody, and 125 U/ml of IL-2 in a total of 150 micro-l/well of AIM-V Medium containing 5% AS. 50 micro-l/well of IL-2 were added to the medium 10 days later so to reach a final concentration of 125 U/ml IL-2. CTL activity was tested on the 14th day, and CTL clones were expanded using the same method as described above (Uchida N et al., Clin Cancer Res 2004, 10(24): 8577-86; Suda T et al., Cancer Sci 2006, 97(5): 411-9; Watanabe T et al., Cancer Sci 2005, 96(8): 498-506).\nas §1, §2"}},
  "note": "“Also recorded” adds a separate entry of the source.",
  "data": [
    {"sequence": "GLGPGLLGV [SEQ ID NO: 44]", "values": [
      {"measurement": "IFN-gamma production of CTL lines (ELISA)", "setting": "peptide-pulsed T2 cells [1]", "result": "potent IFN-gamma production"},
      {"measurement": "Peptide specific CTL activity (IFN-gamma production, ELISPOT)", "setting": "peptide-pulsed T2 cells [2]; listed as TTLL4-A02-9-66", "result": "potent IFN-gamma production; also recorded: significant and specific CTL activity"},
      {"measurement": "Specific CTL activity against COS7 cells transfected with both TTLL4 and HLA-A*0201", "setting": "[3]; listed as TTLL4-A02-9-66", "result": "specific CTL activity; also recorded: potent CTL activity"},
      {"measurement": "Specific CTL activity against control COS7 cells expressing either HLA-A*0201 or TTLL4", "setting": "[3]", "result": "no significant specific CTL activity was detected"}
    ]},
    {"sequence": "ALIYSLFPNV [SEQ ID NO: 59]", "values": [
      {"measurement": "IFN-gamma production of CTL clones (ELISA)", "setting": "peptide-pulsed T2 cells [4]; listed as TTLL4-A02-10-574", "result": "Potent IFN-gamma productions"},
      {"measurement": "IFN-gamma production of CTL lines (ELISA)", "setting": "peptide-pulsed T2 cells [1]", "result": "potent IFN-gamma production"},
      {"measurement": "Peptide specific CTL activity (IFN-gamma production, ELISPOT)", "setting": "peptide-pulsed T2 cells [2]; listed as TTLL4-A02-10-574", "result": "potent IFN-gamma production; also recorded: significant and specific CTL activity"}
    ]},
    {"sequence": "FMHLTNYSV [SEQ ID NO: 39]", "values": [
      {"measurement": "IFN-gamma production of CTL clones (ELISA)", "setting": "peptide-pulsed T2 cells [4]; listed as TTLL4-A02-9-805", "result": "Potent IFN-gamma productions"},
      {"measurement": "IFN-gamma production of CTL lines (ELISA)", "setting": "peptide-pulsed T2 cells [1]", "result": "potent IFN-gamma production"},
      {"measurement": "Peptide specific CTL activity (IFN-gamma production, ELISPOT)", "setting": "peptide-pulsed T2 cells [2]; listed as TTLL4-A02-9-805", "result": "potent IFN-gamma production; also recorded: significant and specific CTL activity"},
      {"measurement": "Specific CTL activity against COS7 cells transfected with both TTLL4 and HLA-A*0201", "setting": "[3]; listed as TTLL4-A02-9-805", "result": "specific CTL activity; also recorded: potent CTL activity"},
      {"measurement": "Specific CTL activity against control COS7 cells expressing either HLA-A*0201 or TTLL4", "setting": "[3]", "result": "no significant specific CTL activity was detected"}
    ]},
    {"sequence": "FMWPNSTPV [SEQ ID NO: 38]", "values": [
      {"measurement": "IFN-gamma production of CTL clones (ELISA)", "setting": "peptide-pulsed T2 cells [4]; listed as TTLL4-A02-9-222", "result": "Potent IFN-gamma productions"},
      {"measurement": "IFN-gamma production of CTL lines (ELISA)", "setting": "peptide-pulsed T2 cells [1]", "result": "potent IFN-gamma production"},
      {"measurement": "Peptide specific CTL activity (IFN-gamma production, ELISPOT)", "setting": "peptide-pulsed T2 cells [2]; listed as TTLL4-A02-9-222", "result": "potent IFN-gamma production; also recorded: significant and specific CTL activity"}
    ]}
  ]
}
